{"source": "paper PMC8801607", "about": "“New Chitosan Polymer Scaffold Schiff Bases as Potential Cytotoxic Activity: Synthesis, Molecular Docking, and Physiochemical Characterization” (Frontiers in Chemistry, 2022)", "system": "MCF-7 cancer cell line", "assay": "cells", "description": "MCF-7 breast cell line was employed in this study. The MCF-7 cell line was pre-incubated on a micro titer plate in this technique. Each test’s results are expressed as a percentage of the treated cells’ growth relative to the untreated control cells. […] 0.1 ml of the cell suspension (containing 5 × 10^6 cells/100 µL)and 0.1 ml of the test solution (6.25–100 µg in 1% DMSO such that the final concentration of DMSO in media was less than 1%) were added to the […] and incubated at 37°C for 72 h in a 5 percent CO2 incubator. The control wells included 1 percent DMSO and cell suspension, while the blank contained simply cell suspension. After 72 h, 20 µL of MTT were added and left in the CO2 incubator for 2 h before adding 100 µL of propanol. To protect the plate from light, it was wrapped in aluminum foil. The […] were then shaken for 10–25 min in a rotary shaker. The […] were processed on an ELISA reader for absorbance at 562 nm after 10–20 min."}
{"smiles": "COc1cccc2c1C(=O)c1c(O)c3c(c(O)c1C2=O)C[C@@](O)(C(=O)CO)C[C@@H]3O[C@H]1C[C@H](N)[C@H](O)[C@H](C)O1", "note": "[Doxorubicin]", "values": [{"measurement": "GI50", "setting": "Homo sapiens, MCF7", "result": 40, "unit": "nM"}, {"measurement": "TGI (total growth of inhibition)", "setting": "MCF-7 cell line, MTT assay, mean ± SD of three separate experiments", "result": "250 ± 230", "unit": "nM"}]}
